Measured values taken from patent EP3496534B1, “LIQUID CONCENTRATE FOR PRESERVATION” (Ashland Industries Europe GmbH, priority 2016, dated 2018).
“Also recorded” adds a separate entry of the source. Values belong to the compound of their own block, whether it stands above or below them.

How the values were obtained:
Format in all cases: physicochemical
[1] = Solubility of mixture A + diols; conditions: 10g of substance added to 90g of mixture A
Method: 10g of each of the following substances was added to 90g of mixture A to obtain solutions (Table 3).

[2] = Solubility of diols in fully demineralized water
[3] = Solubility of various carboxylic acid salts + diols (appearance after stirring 3 h)
Method: Various carboxylic acid salts were mixed with diols in order to test whether homogenous concentrates could be obtained: […]
In example 4c, 10 g of 1-(2-ethyl hexyl) glycerol ether or of 1,2-octanediol, was added to an aqueous potassium sorbate solution in order to obtain solutions (Table 4c). Table 4c […]
In example 4e, 10g of 1-(2-ethyl hexyl) glycerol ether or of 1,2-octanediol was added to aqueous mixtures of potassium sorbate with sodium benzoate (weight ratio 1/1) in order to obtain solutions (Table 4e) Table 4e

[4] = Surface tension of mixture A with water or diols; conditions: for surface tension (change against addition of 10 parts of water): 10 parts added to 90 parts of mixture A, application concentration of 1% in water; for Surface tension, 1% in water, mN/m: 90.0 parts mixture A + 10.0 parts of the substance
Method: The surface tension of mixtures of 90 parts of mixture A from example 1 with 10 parts of water or diols respectively was determined (Table 5): Table 5

[5] = 10.0 diol in potassium sorbate 5.0 / sodium benzoate 5.0 / water 80.0
[6] = 10.0 diol in potassium sorbate 10.0 / sodium benzoate 10.0 / water 70.0
[7] = 10.0 diol in potassium sorbate 10.0 / water 80.0
[8] = 10.0 diol in potassium sorbate 15.0 / sodium benzoate 15.0 / water 60.0
[9] = 10.0 diol in potassium sorbate 20.0 / water 70.0
[10] = 10.0 diol in potassium sorbate 22.5 / sodium benzoate 22.5 / water 45.0
[11] = 10.0 diol in potassium sorbate 30.0 / water 60.0
[12] = 10.0 diol in potassium sorbate 45.0 / water 45.0
[13] = 10.0 diol in sodium benzoate 10.0 / water 80.0
[14] = 10.0 diol in sodium benzoate 20.0 / water 70.0
[15] = 10.0 diol in sodium benzoate 30.0 / water 60.0
[16] = 10.0 diol in sodium benzoate 45.0 / water 45.0
[17] = 10.0 parts diol in potassium formate 45.0 / fully demineralized water 45.0
[18] = 10.0 parts diol in sodium propionate 30.0 / fully demineralized water 60.0

Solubility of mixture A + diols [1]: dissolve; also recorded: clear solution | Solubility [2]: < 0.1%
SMILES: CCCCCCCCCCC(O)CO (stereo not drawn) [1,2-dodecanediol]

Solubility of mixture A + diols [1]: clear solution | Solubility [2]: Unlimited
SMILES: CCCCC(O)CO (stereo not drawn) [1,2-hexanediol]

Appearance of solution after stirring during 3 h [3, 5]: 2 phases | Appearance of solution after stirring during 3 h [3, 6]: can dissolve; also recorded: clear | Appearance of the solution after stirring during 3h [3, 7]: 2 phases | Appearance of solution after stirring during 3 h [3, 8]: can dissolve; also recorded: clear | Appearance of the solution after stirring during 3h [3, 9]: can dissolve; also recorded: clear | Appearance of solution after stirring during 3 h [3, 10]: can dissolve; also recorded: clear | Appearance of the solution after stirring during 3h [3, 11]: can dissolve; also recorded: clear | Appearance of the solution after stirring during 3h [3, 12]: can dissolve; also recorded: clear | Appearance of solution after stirring during 3 h [3, 13]: 2 phases | Appearance of solution after stirring during 3 h [3, 14]: can dissolve; also recorded: clear | Appearance of solution after stirring during 3 h [3, 15]: can dissolve; also recorded: clear | Appearance of solution after stirring during 3 h [3, 16]: can dissolve; also recorded: clear | Solubility of mixture A + diols [1]: clear solution | surface tension (change against addition of 10 parts of water) [4]: significantly decreased | Surface tension, 1% in water, mN/m [4]: 44.7 mN/m | Solubility [2]: 0.7%
SMILES: CCCCCCC(O)CO (stereo not drawn) [1,2-octanediol]
Appearance after stirring for 3 h [3, 17]: can dissolve neither; also recorded: not dissolved, 2 phases | Appearance after stirring for 3 h [3, 18]: can dissolve neither; also recorded: not dissolved, 2 phases

SMILES: CCCCC(CC)COCC(O)CO (stereo not drawn) [1-(2-ethylhexyl) glycerol ether]
Appearance of solution after stirring during 3 h [3, 5]: 2 phases | Appearance of solution after stirring during 3 h ([3]; 10.0 diol in potassium sorbate 7.5 / sodium benzoate 7.5 / water 75.0): 2 phases | Appearance of solution after stirring during 3 h [3, 6]: can dissolve | Appearance of solution after stirring during 3 h ([3]; 10.0 diol in potassium sorbate 10.0 / sodium benzoate 10.0 / water 70.0, listed as 1-(2-ethylhexyl)-glycerol ether): clear | Appearance of the solution after stirring during 3h [3, 7]: 2 phases | Appearance of solution after stirring during 3 h [3, 8]: can dissolve | Appearance of solution after stirring during 3 h ([3]; 10.0 diol in potassium sorbate 15.0 / sodium benzoate 15.0 / water 60.0, listed as 1-(2-ethylhexyl)-glycerol ether): clear | Appearance of the solution after stirring during 3h ([3]; 10.0 diol in potassium sorbate 15.0 / water 75.0): 2 phases | Appearance of the solution after stirring during 3h [3, 9]: clear | Appearance of the solution after stirring during 3h ([3]; 10.0 diol in potassium sorbate 20.0 / water 70.0, listed as 1-(2-ethylhexyloxy)glycerol ether): can dissolve | Appearance of solution after stirring during 3 h [3, 10]: can dissolve | Appearance of solution after stirring during 3 h ([3]; 10.0 diol in potassium sorbate 22.5 / sodium benzoate 22.5 / water 45.0, listed as 1-(2-ethylhexyl)-glycerol ether): clear | Appearance of the solution after stirring during 3h [3, 11]: clear | Appearance of the solution after stirring during 3h ([3]; 10.0 diol in potassium sorbate 30.0 / water 60.0, listed as 1-(2-ethylhexyloxy)glycerol ether): can dissolve | Appearance of the solution after stirring during 3h [3, 12]: clear | Appearance of the solution after stirring during 3h ([3]; 10.0 diol in potassium sorbate 45.0 / water 45.0, listed as 1-(2-ethylhexyloxy)glycerol ether): can dissolve | Appearance of solution after stirring during 3 h [3, 13]: 2 phases | Appearance of solution after stirring during 3 h ([3]; 10.0 diol in sodium benzoate 15.0 / water 75.0): 2 phases | Appearance of solution after stirring during 3 h [3, 14]: can dissolve; also recorded: clear | Appearance of solution after stirring during 3 h [3, 15]: can dissolve; also recorded: clear | Appearance of solution after stirring during 3 h [3, 16]: can dissolve; also recorded: clear | Appearance after stirring for 3 h [3, 17]: can dissolve neither; also recorded: not dissolved, 2 phases | Appearance after stirring for 3 h [3, 18]: not dissolved, 2 phases | Appearance after stirring for 3 h ([3]; 10.0 parts diol in sodium propionate 30.0 / fully demineralized water 60.0, listed as 1-(2-ethylhexyl)glycerol ether): can dissolve neither | Solubility of mixture A + diols [1]: clear solution | surface tension (change against addition of 10 parts of water) [4]: significantly decreased | Surface tension, 1% in water, mN/m [4]: 35.6 mN/m | Solubility [2]: 0.1%

SMILES: CCCCCCCCCCCCOCC(O)CO (stereo not drawn) [1-dodecyl glycerol ether]
Solubility of mixture A + diols [1]: clear solution | Solubility [2]: < 0.1%

surface tension (change against addition of 10 parts of water) [4]: not observed | Surface tension, 1% in water, mN/m [4]: 72.2 mN/m
SMILES: OCC(O)CO [Glycerol (85%), Glycerol, reference compound]

surface tension (change against addition of 10 parts of water) [4]: not observed | Surface tension, 1% in water, mN/m [4]: 72.3 mN/m
SMILES: CC(O)CO (stereo not drawn) [Propylene glycol, reference compound]

SMILES: O [Water]
Surface tension, 1% in water, mN/m [4]: 71.9 mN/m
